Biological target: T1, EnLOX (Enterovibrio norvegicus, UniProt A0A1I5T4S6)
T1 construct: gene SAMN03084138_03074; E. coli BL21(DE3); Ni-NTA purified
T1 sequence (A0A1I5T4S6 1-726): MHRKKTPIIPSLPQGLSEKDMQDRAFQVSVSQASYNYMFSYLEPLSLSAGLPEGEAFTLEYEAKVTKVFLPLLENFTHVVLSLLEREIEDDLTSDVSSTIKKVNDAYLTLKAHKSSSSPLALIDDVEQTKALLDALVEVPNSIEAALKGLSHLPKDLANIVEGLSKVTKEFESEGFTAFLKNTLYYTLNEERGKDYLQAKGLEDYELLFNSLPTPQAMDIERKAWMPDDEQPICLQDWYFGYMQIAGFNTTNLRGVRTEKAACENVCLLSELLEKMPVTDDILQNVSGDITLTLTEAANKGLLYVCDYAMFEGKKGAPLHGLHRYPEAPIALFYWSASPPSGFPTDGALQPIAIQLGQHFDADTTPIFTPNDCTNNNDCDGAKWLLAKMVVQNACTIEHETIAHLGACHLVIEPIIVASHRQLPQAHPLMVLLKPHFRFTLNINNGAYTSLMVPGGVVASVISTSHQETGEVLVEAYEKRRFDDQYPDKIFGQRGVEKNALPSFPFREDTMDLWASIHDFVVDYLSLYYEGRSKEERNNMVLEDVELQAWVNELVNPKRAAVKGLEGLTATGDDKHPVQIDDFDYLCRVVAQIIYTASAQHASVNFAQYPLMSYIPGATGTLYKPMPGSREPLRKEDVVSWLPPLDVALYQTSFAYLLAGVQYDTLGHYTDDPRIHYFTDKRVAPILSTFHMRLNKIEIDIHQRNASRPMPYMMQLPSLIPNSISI
Test: absorbance at […] nm, Michaelis-Menten nonlinear fit
Type: biochemical
Conditions: 20 mmol L^−1 Tris-HCl, pH 8.0, 50 °C

SMILES	Km [µM]
CC/C=C\C/C=C\C/C=C\CCCCCCCC(=O)O [ALA, α-linolenic acid]	2.32
CCCCC/C=C\C/C=C\C/C=C\CCCCC(=O)O [GLA, γ-linolenic acid]	8.79
